Here are results for five compounds from patent publication US7459470B2, “N-oxide anthranylamide derivatives and their use as medicaments” (Schering AG, priority 2001, dated 2008).

Data set [1] deals with VEGFR II (KDR) (Homo sapiens, UniProt P35968). The experiment in a line: Inhibition of the KDR kinase activity (33P-ATP, poly-(Glu4Tyr) filter assay). It counts as biochemical. The note with it: phosphate incorporation into poly-(Glu4Tyr), 10 minutes at room temperature. On the procedure: • Stock Solutions • Stock solution A: 3 mmol of ATP in water, pH 7.0 (−70° C.) • Stock solution B: g-33P-ATP 1 mCi/100 μl • Stock solution C: poly-(Glu4 Tyr). 10 mg/ml in water Solution for Dilutions • Substrate solvent: 10 mmol of DTT, 10 mmol of manganese chloride, 100 mmol of magnesium chloride • Enzyme solution: 120 mmol of tris/HCl, pH 7.5, 10 μM of sodium vanadium oxide Sample Application 1 Inhibition of the KDR- and FLT-1 Kinase Activity in the Presence of the Compounds According to the Invention
Chain of VEGFR II (KDR) (P35968 20-1356, species assumed): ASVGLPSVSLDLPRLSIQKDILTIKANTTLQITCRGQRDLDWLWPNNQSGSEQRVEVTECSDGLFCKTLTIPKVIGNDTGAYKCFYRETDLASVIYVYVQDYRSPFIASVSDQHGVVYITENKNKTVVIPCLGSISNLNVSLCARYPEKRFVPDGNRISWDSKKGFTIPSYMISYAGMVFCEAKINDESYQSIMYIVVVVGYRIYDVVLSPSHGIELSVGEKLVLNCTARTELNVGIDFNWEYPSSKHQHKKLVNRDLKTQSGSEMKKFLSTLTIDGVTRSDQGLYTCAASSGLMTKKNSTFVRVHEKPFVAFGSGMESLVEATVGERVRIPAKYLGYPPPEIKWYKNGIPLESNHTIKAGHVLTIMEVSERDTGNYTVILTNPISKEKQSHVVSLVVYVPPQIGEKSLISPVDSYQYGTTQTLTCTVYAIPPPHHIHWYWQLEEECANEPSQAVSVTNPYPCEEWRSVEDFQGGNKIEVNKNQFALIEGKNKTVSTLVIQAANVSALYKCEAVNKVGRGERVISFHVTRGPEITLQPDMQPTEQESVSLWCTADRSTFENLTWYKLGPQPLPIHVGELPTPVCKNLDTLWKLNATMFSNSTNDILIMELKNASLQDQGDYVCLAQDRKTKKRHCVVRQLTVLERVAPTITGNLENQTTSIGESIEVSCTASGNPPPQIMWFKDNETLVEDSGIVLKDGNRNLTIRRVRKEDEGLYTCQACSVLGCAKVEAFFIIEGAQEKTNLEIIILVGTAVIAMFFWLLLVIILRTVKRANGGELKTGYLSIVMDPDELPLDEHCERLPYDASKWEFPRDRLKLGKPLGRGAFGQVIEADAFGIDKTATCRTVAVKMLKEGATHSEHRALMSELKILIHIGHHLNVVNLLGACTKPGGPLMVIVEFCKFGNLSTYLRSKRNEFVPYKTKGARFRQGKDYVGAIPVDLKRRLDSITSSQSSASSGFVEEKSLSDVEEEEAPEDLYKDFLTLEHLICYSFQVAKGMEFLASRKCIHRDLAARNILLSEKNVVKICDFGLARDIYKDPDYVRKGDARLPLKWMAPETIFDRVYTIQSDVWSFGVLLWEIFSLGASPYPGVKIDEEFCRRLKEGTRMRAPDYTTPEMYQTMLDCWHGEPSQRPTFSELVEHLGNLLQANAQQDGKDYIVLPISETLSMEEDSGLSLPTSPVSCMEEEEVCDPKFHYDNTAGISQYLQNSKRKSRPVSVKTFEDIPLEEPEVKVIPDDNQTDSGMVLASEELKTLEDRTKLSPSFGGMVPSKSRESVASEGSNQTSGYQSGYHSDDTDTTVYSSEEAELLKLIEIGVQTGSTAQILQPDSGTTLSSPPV
In a microtiter plate (without protein binding) that tapers to a point, 10 μl of substrate mix (10 μl of volume of ATP stock solution A+25 μCi of g-33P-ATP (about 2.5 μl of stock solution B)+30 μl of poly-(Glu4Tyr) stock solution C+1.21 ml of substrate solvent), 10 μl of inhibitor solution (substances corresponding to the dilutions, 3% DMSO in substrate solvent as a control) and 10 μl of enzyme solution (11.25 μg of enzyme stock solution (KDR or FLT-1 kinase) are added at 4° C. in 1.25 ml of enzyme solution (dilute). It is thoroughly mixed and incubated for 10 minutes at room temperature. Then, 10 μl of stop solution (250 mmol of EDTA, pH 7.0) is added, mixed, and 10 μl of the solution is transferred to a P 81 phosphocellulose filter. Then, it is washed several times in 0.1 M phosphoric acid. The filter paper is dried, coated with Meltilex and measured in a microbeta counter.
The IC50 values are determined from the inhibitor concentration, which is necessary to inhibit the phosphate incorporation to 50% of the uninhibited incorporation after removal of the blank reading (EDTA-stopped reaction).

Data set [2] has as its target T1, CYP3A4 (Homo sapiens, UniProt P08684).
T1 construct: host or cells: baculovirus/insect cells
Put plainly: Cytochrome P450 inhibition, isoenzyme 3A4. It counts as in vitro ADME. The note with it: baculovirus/insect cell-expressed recombinant human CYP3A4, read-out: Inhibition of the Cytochrome P450 Isoenzymes IC50, 3A4. Here is the method:
(§1) The Cytochrome P450 inhibition was performed according to the publication of Crespi et al. (Anal Biochem., 248, 188-190 (1997)) with use of baculovirus/insect cell-expressed, human Cytochrome P 450 isoenzymes (1A2, 2C9, 2C19, 2D6, 3A4).

In data set [3] the target is T2, CYP2C19 (Homo sapiens, UniProt P33261).
T2 construct: host or cells: baculovirus/insect cells
T2 sequence (P33261 whole entry): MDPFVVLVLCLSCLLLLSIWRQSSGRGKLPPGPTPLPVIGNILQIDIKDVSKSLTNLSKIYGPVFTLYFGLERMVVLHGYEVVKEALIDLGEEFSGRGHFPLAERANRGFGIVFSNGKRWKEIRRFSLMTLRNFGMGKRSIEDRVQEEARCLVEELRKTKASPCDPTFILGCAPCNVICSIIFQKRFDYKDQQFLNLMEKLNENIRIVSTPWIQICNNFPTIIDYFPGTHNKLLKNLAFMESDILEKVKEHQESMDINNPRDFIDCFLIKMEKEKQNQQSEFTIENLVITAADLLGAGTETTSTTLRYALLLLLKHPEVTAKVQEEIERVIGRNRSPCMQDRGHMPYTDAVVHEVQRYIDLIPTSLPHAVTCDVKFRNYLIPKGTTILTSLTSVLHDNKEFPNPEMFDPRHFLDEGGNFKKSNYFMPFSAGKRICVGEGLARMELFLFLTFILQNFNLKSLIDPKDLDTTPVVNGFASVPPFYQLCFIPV
The experiment in a line: Cytochrome P450 inhibition, isoenzyme 2C19. It counts as in vitro ADME. The note with it: baculovirus/insect cell-expressed recombinant human CYP2C19, read-out: Inhibition of the Cytochrome P450 Isoenzymes IC50, 2C19. Here is the method: as §1

In data set [4] the target is T3, CYP2D6 (Homo sapiens, UniProt P10635).
T3 construct: host or cells: baculovirus/insect cells
T3 sequence (P10635 whole entry): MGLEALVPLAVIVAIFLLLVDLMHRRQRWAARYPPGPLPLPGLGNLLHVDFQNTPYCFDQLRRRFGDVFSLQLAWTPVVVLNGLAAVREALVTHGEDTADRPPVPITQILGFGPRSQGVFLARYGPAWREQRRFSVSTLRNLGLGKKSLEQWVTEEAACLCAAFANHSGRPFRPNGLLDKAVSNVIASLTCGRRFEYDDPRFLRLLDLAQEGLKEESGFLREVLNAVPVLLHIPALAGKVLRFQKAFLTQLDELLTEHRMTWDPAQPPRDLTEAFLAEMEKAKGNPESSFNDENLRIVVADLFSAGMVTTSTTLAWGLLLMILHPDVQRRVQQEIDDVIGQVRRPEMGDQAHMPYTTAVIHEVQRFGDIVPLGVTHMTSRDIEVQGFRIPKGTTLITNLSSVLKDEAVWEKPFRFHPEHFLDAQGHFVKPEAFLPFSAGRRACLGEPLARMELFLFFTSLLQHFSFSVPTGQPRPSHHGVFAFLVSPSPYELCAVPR
Put plainly: Cytochrome P450 inhibition, isoenzyme 2D6. The note with it: baculovirus/insect cell-expressed recombinant human CYP2D6, read-out: Inhibition of the Cytochrome P450 Isoenzymes IC50, 2D6. It counts as in vitro ADME. Here is the method:
as §1

For data set [5], the target named is T4, CYP2C9 (Homo sapiens, UniProt P11712).
T4 construct: host or cells: baculovirus/insect cells
T4 sequence (P11712 whole entry): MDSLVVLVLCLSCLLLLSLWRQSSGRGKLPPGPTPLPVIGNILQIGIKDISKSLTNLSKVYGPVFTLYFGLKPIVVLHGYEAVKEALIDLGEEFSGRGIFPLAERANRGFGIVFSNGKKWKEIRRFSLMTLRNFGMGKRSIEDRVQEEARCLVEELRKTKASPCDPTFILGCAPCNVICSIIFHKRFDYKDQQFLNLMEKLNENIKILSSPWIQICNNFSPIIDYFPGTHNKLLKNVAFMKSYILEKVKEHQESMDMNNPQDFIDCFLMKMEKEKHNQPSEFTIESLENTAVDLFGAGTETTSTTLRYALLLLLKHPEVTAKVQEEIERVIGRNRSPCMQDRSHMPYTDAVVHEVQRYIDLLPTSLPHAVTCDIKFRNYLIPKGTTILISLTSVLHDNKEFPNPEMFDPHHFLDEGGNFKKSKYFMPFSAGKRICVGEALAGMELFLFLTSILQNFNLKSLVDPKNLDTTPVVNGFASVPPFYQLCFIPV
The experiment in a line: Cytochrome P450 inhibition, isoenzyme 2C9. The note with it: baculovirus/insect cell-expressed recombinant human CYP2C9, read-out: Inhibition of the Cytochrome P450 Isoenzymes IC50, 2C9. It counts as in vitro ADME. Here is the method: as §1

Data set [6] deals with T5, CYP1A2 (Homo sapiens, UniProt P05177).
T5 construct: host or cells: baculovirus/insect cells
T5 sequence (P05177 1-516): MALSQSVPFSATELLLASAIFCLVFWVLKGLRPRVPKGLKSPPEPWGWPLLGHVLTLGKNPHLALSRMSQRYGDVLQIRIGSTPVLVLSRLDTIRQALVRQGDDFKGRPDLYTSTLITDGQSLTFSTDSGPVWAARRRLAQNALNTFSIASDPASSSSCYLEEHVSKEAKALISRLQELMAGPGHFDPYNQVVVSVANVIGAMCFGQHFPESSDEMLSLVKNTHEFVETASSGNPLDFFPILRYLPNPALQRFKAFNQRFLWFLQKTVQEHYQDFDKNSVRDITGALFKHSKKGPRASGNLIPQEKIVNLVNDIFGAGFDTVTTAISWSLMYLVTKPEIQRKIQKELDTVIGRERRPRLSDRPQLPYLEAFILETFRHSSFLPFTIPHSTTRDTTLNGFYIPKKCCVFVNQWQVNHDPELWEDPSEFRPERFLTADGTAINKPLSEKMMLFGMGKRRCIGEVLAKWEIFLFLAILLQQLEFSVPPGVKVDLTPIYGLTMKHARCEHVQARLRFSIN
Put plainly: Cytochrome P450 inhibition, isoenzyme 1A2. It counts as in vitro ADME. The note with it: baculovirus/insect cell-expressed recombinant human CYP1A2, read-out: Inhibition of the Cytochrome P450 Isoenzymes IC50, 1A2. Here is the method:
as §1

Bounds are passed on as bounds.

T1 sequence (P08684 whole entry): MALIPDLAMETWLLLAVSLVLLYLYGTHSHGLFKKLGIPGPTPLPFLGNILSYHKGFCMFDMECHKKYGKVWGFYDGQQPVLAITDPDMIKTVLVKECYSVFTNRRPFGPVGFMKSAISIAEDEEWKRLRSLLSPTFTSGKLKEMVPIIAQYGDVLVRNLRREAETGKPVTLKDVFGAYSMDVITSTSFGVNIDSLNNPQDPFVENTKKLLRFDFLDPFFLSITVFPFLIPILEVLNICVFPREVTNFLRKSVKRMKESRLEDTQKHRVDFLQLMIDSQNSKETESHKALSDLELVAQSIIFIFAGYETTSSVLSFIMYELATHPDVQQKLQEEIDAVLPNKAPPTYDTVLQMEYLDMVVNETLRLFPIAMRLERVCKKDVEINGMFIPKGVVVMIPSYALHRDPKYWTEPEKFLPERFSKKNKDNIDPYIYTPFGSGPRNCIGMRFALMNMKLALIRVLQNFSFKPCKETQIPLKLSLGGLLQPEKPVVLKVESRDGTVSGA

For `O=C(Nc1cc2ccccc2cn1)c1ccccc1NCc1cc[n+]([O-])cc1` [Example 1, N-(Isoquinolin-3-yl)-2-(4-pyridylmethyl)aminobenzoic acid amide-N-oxide], the concentration for half-maximal inhibition (IC50) in data set [1] was 30 nM; in data set [2] it was above 30000 nM; in data set [3], 3600 nM; in data set [4], above 30000 nM; in data set [5], 5200 nM; in data set [6], above 30000 nM.
`O=C(Nc1cc2ccccc2cn1)c1ccccc1NCc1ccc[n+]([O-])c1` [Example 2] displayed a melting point of 191.9 °C. In data set [1], this compound displayed an IC50 of 200 nM.
As for `O=C(Nc1cccc(C(F)(F)F)c1)c1ccccc1NCc1cc[n+]([O-])cc1` [Example 4], the melting point lay within 181 to 184 °C. Further, the half-inhibitory concentration (IC50) in data set [1] was determined as 50 nM.
`O=C(Nc1cc2ccccc2cn1)c1cccnc1NCc1cc[n+]([O-])cc1` [Example 7] had a melting point of 196.2 °C. In data set [1], this compound came in with an IC50 of 50 nM.
For the compound `O=C(Nc1cccc(C(F)(F)F)c1)c1cccnc1NCc1cc[n+]([O-])cc1` [Example 8], the IC50 in data set [1] was 50 nM.

For orientation: IC50 means the concentration at which inhibition is half-maximal. The melting point is the temperature, or range, at which the solid turns liquid.
